Experimental data: ChEMBL document CHEMBL3991601, “The target landscape of clinical kinase drugs” (Science, 2017)
pKd: −log10 of the molar value. Activity calls are given as the source filed them.

How the values were obtained:
[1] = molecular target: Epidermal growth factor receptor (Homo sapiens, UniProt P00533)
[2] = molecular target: Tyrosine-protein kinase Lck (Homo sapiens, UniProt P06239)
[3] = molecular target: Mitogen-activated protein kinase 14 (Homo sapiens, UniProt Q16539)
[4] = molecular target: Protein kinase C theta type (Homo sapiens, UniProt Q04759)
Focal adhesion kinase 1 = Focal adhesion kinase 1 (Homo sapiens, UniProt Q05397)
[5] = molecular target: Serine/threonine-protein kinase 24 (Homo sapiens, UniProt Q9Y6E0)
[6] = molecular target: T1, ATP-dependent RNA helicase DHX30 (Homo sapiens, UniProt Q7L2E3)
T1 sequence (Q7L2E3 whole entry): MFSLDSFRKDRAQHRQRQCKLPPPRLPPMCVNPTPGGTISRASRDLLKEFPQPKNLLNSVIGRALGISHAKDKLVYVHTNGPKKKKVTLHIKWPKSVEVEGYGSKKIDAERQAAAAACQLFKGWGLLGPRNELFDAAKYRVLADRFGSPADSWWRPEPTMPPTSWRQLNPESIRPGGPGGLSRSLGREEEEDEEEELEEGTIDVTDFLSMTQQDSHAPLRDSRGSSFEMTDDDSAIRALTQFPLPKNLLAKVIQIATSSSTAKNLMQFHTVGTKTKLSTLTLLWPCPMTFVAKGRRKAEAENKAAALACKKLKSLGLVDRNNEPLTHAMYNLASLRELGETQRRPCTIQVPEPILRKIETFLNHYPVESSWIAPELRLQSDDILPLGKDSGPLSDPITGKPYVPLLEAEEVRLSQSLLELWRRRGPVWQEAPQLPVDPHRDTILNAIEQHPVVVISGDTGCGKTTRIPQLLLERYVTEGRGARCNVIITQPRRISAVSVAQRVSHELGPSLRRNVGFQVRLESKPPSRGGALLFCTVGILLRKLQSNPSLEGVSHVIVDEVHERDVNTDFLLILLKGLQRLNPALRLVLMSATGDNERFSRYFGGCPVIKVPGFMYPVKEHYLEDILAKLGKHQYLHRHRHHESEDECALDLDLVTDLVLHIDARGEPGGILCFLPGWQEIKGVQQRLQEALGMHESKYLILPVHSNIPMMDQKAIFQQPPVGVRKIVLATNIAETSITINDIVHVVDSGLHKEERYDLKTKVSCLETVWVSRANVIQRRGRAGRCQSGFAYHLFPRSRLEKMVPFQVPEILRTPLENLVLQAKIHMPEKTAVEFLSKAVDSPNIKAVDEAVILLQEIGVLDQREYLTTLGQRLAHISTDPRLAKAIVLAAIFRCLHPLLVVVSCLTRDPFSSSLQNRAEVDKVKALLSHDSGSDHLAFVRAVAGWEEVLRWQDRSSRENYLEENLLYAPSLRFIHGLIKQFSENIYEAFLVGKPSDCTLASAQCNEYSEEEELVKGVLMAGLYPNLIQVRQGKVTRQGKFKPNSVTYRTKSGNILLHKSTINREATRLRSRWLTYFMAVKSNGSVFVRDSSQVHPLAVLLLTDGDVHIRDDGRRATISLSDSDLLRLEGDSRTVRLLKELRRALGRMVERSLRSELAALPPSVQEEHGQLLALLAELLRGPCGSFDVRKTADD

[7] = molecular target: T2, Eukaryotic translation initiation factor 5B (Homo sapiens, UniProt O60841)
T2 sequence (O60841 whole entry): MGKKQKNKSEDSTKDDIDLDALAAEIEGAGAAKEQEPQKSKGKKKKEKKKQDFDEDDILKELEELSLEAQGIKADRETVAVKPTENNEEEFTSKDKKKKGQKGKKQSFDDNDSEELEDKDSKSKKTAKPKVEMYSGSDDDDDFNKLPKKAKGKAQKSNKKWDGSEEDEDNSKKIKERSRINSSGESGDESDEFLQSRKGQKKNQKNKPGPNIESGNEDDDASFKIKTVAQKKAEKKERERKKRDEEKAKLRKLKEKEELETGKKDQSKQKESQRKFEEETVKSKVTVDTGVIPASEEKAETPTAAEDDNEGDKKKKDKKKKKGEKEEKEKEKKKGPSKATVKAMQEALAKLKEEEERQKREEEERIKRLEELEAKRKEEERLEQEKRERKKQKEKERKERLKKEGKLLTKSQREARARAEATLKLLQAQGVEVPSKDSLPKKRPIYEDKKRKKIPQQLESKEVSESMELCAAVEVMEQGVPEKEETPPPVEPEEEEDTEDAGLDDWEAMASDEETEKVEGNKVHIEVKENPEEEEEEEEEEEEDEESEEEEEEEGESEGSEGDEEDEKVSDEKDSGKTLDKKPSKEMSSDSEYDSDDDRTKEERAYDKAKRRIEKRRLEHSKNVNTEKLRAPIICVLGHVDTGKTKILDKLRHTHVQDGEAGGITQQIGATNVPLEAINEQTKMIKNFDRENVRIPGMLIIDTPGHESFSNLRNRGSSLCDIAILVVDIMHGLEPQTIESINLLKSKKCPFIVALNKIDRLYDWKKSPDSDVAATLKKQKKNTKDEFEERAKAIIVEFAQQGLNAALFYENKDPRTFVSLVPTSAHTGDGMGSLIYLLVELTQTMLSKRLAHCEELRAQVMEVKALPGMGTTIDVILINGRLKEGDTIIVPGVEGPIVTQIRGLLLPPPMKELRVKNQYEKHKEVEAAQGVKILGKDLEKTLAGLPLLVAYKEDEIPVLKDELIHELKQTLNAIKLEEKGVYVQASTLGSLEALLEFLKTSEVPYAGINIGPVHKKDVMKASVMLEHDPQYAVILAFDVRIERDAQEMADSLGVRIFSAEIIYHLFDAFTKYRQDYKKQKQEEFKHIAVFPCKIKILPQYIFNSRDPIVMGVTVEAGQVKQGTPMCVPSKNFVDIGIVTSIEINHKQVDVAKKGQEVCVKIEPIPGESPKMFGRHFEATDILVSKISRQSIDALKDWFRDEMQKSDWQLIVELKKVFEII

[8] = molecular target: Hepatocyte growth factor receptor (Homo sapiens, UniProt P08581)
[9] = molecular target: DNA topoisomerase 2-alpha (Homo sapiens, UniProt P11388)
Myosin-10 = Myosin-10 (Homo sapiens, UniProt P35580)
Note: in the data inactive means no Kd found up to 30 µM.

Chain of Tyrosine-protein kinase Lck (P06239 whole entry): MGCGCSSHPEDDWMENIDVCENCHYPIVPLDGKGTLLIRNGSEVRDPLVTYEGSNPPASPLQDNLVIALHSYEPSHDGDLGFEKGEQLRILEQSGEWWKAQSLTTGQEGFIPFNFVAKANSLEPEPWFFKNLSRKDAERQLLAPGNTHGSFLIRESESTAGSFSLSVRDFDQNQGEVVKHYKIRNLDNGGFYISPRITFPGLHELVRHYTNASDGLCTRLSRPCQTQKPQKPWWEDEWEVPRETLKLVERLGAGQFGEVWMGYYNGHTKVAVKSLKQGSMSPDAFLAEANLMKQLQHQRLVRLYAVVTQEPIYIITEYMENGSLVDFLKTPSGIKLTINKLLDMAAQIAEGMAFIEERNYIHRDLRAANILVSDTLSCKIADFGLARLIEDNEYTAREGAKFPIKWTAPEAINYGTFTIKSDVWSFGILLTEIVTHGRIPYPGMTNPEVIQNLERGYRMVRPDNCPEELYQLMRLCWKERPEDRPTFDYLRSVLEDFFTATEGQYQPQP
Chain of Serine/threonine-protein kinase 24 (Q9Y6E0 whole entry): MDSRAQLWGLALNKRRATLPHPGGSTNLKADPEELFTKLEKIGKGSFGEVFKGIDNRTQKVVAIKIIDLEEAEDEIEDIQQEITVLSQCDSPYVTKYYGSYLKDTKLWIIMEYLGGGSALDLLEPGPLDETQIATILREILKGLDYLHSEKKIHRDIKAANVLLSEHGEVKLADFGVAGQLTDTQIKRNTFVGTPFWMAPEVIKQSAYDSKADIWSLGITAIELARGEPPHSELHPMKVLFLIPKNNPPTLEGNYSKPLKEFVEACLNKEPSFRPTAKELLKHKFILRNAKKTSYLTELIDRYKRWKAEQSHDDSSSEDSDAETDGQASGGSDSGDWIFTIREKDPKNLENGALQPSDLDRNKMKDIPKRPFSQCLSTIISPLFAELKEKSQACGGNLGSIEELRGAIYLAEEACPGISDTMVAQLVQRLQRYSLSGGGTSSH
Chain of DNA topoisomerase 2-alpha (P11388 whole entry): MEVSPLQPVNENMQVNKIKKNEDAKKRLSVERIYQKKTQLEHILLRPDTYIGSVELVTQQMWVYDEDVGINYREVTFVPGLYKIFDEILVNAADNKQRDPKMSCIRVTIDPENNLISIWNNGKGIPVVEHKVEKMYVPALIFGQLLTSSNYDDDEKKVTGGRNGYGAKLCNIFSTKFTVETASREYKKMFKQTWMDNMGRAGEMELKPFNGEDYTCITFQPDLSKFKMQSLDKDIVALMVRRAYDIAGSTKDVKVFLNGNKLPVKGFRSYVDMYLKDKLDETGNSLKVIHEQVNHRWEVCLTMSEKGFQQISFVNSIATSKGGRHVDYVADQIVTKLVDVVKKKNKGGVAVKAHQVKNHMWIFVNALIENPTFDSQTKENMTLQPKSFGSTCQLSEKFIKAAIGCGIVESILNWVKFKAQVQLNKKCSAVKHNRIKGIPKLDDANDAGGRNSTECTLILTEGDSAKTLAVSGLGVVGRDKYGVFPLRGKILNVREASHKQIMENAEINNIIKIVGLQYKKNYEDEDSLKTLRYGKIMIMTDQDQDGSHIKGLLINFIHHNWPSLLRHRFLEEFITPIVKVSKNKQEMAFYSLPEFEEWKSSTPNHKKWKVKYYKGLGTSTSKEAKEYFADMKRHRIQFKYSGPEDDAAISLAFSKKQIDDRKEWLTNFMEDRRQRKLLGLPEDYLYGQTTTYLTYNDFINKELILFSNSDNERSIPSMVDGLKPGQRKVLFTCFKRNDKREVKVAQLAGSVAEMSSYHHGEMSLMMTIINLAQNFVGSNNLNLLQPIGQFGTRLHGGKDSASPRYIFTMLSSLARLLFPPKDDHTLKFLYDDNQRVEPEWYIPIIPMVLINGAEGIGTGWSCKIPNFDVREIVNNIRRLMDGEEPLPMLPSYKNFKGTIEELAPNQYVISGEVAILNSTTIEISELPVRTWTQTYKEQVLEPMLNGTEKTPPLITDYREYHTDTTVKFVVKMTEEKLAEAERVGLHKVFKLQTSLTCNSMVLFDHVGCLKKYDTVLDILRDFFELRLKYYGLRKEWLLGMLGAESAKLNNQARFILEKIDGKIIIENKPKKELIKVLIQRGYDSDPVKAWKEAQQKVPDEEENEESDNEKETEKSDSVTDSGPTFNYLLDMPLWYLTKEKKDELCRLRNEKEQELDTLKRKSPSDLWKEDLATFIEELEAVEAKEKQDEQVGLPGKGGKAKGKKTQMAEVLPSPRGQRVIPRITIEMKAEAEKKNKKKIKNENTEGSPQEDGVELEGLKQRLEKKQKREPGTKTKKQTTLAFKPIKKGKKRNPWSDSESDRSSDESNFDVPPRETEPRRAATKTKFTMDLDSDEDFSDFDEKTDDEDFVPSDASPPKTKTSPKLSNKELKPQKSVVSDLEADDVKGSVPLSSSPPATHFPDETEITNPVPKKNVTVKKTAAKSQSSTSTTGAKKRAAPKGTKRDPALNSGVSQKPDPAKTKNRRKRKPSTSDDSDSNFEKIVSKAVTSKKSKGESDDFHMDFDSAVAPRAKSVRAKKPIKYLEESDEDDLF
Chain of Focal adhesion kinase 1 (Q05397 whole entry): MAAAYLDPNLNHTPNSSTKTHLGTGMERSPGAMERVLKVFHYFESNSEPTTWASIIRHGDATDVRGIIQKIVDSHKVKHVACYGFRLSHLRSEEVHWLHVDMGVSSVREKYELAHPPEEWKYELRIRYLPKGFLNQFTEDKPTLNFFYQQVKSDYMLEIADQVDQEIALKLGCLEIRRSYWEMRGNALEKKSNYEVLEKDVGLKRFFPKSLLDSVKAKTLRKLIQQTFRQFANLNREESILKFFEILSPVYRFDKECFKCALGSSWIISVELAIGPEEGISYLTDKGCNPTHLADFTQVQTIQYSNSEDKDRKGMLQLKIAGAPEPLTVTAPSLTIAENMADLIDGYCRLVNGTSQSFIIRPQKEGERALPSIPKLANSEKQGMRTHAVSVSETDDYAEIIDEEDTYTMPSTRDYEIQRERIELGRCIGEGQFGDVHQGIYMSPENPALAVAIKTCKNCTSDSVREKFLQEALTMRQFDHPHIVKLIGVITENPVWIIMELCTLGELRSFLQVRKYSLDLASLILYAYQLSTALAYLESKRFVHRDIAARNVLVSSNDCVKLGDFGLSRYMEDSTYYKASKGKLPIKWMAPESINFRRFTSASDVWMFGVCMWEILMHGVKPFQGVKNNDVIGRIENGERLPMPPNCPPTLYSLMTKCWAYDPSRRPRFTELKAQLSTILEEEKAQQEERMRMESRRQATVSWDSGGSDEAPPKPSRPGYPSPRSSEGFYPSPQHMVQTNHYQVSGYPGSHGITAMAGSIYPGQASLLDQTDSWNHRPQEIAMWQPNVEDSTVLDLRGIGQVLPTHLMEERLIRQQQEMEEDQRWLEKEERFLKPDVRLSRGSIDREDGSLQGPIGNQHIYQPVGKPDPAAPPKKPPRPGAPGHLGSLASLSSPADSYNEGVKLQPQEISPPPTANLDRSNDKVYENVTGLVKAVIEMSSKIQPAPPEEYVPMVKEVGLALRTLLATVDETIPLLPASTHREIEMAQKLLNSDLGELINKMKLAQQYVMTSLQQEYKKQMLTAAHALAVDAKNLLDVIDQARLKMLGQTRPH
Chain of Hepatocyte growth factor receptor (P08581 whole entry): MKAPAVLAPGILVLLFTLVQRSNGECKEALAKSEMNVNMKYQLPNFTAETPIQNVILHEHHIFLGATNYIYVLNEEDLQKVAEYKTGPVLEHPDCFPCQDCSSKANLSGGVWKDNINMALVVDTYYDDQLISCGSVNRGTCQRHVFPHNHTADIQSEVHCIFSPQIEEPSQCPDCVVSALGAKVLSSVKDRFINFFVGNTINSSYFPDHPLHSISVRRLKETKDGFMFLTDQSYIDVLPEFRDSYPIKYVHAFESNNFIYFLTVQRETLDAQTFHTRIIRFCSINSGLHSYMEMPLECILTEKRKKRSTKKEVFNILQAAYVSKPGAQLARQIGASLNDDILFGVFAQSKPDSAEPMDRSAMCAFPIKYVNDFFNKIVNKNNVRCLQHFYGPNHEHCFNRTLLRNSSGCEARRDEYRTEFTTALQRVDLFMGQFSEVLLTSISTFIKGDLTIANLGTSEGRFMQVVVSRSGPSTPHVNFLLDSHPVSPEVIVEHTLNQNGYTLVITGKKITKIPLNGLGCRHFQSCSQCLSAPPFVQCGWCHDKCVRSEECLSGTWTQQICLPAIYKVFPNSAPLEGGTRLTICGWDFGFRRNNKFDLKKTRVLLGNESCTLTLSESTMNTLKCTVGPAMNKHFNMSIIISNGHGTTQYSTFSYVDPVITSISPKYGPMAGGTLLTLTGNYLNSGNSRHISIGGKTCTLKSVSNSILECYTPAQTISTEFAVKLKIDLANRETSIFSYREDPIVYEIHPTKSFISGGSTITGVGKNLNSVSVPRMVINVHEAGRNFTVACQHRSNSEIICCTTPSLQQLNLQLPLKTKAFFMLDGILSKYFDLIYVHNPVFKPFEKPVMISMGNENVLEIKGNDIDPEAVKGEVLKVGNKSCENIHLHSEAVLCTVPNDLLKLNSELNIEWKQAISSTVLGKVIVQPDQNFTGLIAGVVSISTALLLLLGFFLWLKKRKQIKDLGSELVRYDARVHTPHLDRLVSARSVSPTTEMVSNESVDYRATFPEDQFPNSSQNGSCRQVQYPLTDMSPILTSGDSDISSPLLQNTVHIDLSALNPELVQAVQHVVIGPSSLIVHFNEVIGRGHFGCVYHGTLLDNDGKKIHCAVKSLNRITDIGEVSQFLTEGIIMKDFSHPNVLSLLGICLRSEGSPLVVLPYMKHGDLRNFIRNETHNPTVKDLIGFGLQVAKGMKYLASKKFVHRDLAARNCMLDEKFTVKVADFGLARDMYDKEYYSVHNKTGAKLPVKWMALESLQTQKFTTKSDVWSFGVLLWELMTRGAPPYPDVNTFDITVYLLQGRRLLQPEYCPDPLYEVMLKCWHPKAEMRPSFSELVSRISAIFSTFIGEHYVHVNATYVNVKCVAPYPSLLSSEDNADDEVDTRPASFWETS

SMILES | Kd [1] | Kd [2] | Kd [3] | Kd [4] | Kd (Focal adhesion kinase 1) | Kd [5] | Kd [6] | Kd [7] | Kd [8] | Kd [9] | Kd (Myosin-10) | pKd [5]
COc1cccc(Nc2ncnn3ccc(CN4CC[C@@H](N)[C@H](O)C4)c23)c1 [BMS-690514] | 0.225 µM (active) | 0.514 µM (active) | > 30 µM (inactive) | > 30 µM (inactive) | > 30 µM (inactive) | > 30 µM (inactive) |  |  |  |  |  | 
COc1cc2ncnc3c2cc1OCCCCCN(C)Cc1ccc(Br)cc1N3 [JNJ-26483327] | 0.602 µM (active) | > 30 µM (inactive) | > 30 µM (inactive) | > 30 µM (inactive) | > 30 µM (inactive) |  | > 30 µM (inactive) | > 30 µM (inactive) | > 30 µM (inactive) | > 30 µM (inactive) |  | 
CNC(=O)c1cc(COc2nnc(Nc3ccc(Cl)cc3)c3ccoc23)ccn1 [TELATINIB] | > 30 µM (inactive) | > 30 µM (inactive) | > 30 µM (inactive) | > 30 µM (inactive) | > 30 µM (inactive) | > 30 µM (inactive) |  | > 30 µM (inactive) | > 30 µM (inactive) | > 30 µM (inactive) |  | 
Cc1cc(-c2cc(OC(=O)c3ccccc3)ccc2Cl)cc2nnc(Nc3ccc(OCCN4CCCC4)cc3)nc12 [TG100-801] | > 30 µM (inactive) | 1.47 µM (active) | > 30 µM (inactive) | > 30 µM (inactive) | > 30 µM (inactive) |  | > 30 µM (inactive) |  | > 30 µM (inactive) |  | > 30 µM (inactive) | 
N#CCNC(=O)c1ccc(-c2ccnc(Nc3ccc(N4CCOCC4)cc3)n2)cc1 [MOMELOTINIB] |  |  | > 30 µM (inactive) |  |  |  |  |  |  | > 30 µM (inactive) |  | 
Cc1cc(C(=O)Nc2cc(Oc3ccc4nc(NC(=O)C5CC5)cn4n3)ccc2C)n(C)n1 [TAK-593] | > 30 µM (inactive) | > 30 µM (inactive) | > 30 µM (inactive) | > 30 µM (inactive) | > 30 µM (inactive) | > 30 µM (inactive) | > 30 µM (inactive) |  | > 30 µM (inactive) | > 30 µM (inactive) |  | 
NC[C@@](O)(c1ccc(Cl)cc1)c1ccc(-c2cn[nH]c2)cc1 [AT-13148] | > 30 µM (inactive) | > 30 µM (inactive) | > 30 µM (inactive) | > 30 µM (inactive) | > 30 µM (inactive) |  |  | > 30 µM (inactive) | > 30 µM (inactive) | > 30 µM (inactive) | > 30 µM (inactive) | 
C=CCN(/C=C1/C(=O)O[C@H](COC)[C@@]2(C)C1=C(O)C(=O)C1=C2[C@H](OC(C)=O)C[C@]2(C)C(=O)CC[C@@H]12)CC=C [SONOLISIB] | > 30 µM (inactive) | > 30 µM (inactive) | > 30 µM (inactive) |  | > 30 µM (inactive) | > 30 µM (inactive) |  |  | > 30 µM (inactive) |  | > 30 µM (inactive) | 
C=CC(=O)Nc1cccc(Nc2nc(Nc3ccc(N4CCN(C(C)=O)CC4)cc3OC)ncc2C(F)(F)F)c1 [ROCILETINIB] |  | > 30 µM (inactive) | > 30 µM (inactive) |  | 0.433 µM (active) |  |  | > 30 µM (inactive) |  | > 30 µM (inactive) | > 30 µM (inactive) | 
NC(=O)c1ccc(N(C(N)=O)c2c(F)cccc2F)nc1-c1ccc(F)cc1F [VX-702] | > 30 µM (inactive) | > 30 µM (inactive) |  | > 30 µM (inactive) | > 30 µM (inactive) | > 30 µM (inactive) | > 30 µM (inactive) | > 30 µM (inactive) | > 30 µM (inactive) | > 30 µM (inactive) |  | 
COc1cc(F)c(F)c(Nc2ccc(I)cc2F)c1NS(=O)(=O)C1(C[C@H](O)CO)CC1 [REFAMETINIB] | > 30 µM (inactive) | > 30 µM (inactive) | > 30 µM (inactive) | > 30 µM (inactive) | > 30 µM (inactive) |  | > 30 µM (inactive) | > 30 µM (inactive) | > 30 µM (inactive) |  |  | 
O[C@H]1CC[C@H](Nc2ncc3nc(Nc4c(F)cc(F)cc4F)n([C@H]4CCOC4)c3n2)CC1 [TANZISERTIB] |  | > 30 µM (inactive) | 0.729 µM (active) | > 30 µM (inactive) | > 30 µM (inactive) | > 30 µM (inactive) | > 30 µM (inactive) | > 30 µM (inactive) | > 30 µM (inactive) | > 30 µM (inactive) |  | 
CCc1nc(C(N)=O)c(Nc2ccc(N3CCC(N4CCN(C)CC4)CC3)c(OC)c2)nc1NC1CCOCC1 [GILTERITINIB] | 3.5 µM (active) | > 30 µM (inactive) | > 30 µM (inactive) |  | > 30 µM (inactive) |  | > 30 µM (inactive) | > 30 µM (inactive) |  | > 30 µM (inactive) |  | 6.64
Cn1c(=O)n(-c2ccc(C(C)(C)C#N)cc2)c2c3cc(-c4cnc5ccccc5c4)ccc3ncc21 [DACTOLISIB] | > 30 µM (inactive) |  |  |  |  | > 30 µM (inactive) |  | > 30 µM (inactive) |  | > 30 µM (inactive) | > 30 µM (inactive) | 
COc1cccc2cc(-c3nc([C@H]4CC[C@H](C(=O)O)CC4)n4ncnc(N)c34)[nH]c12 [OSI-027] | > 30 µM (inactive) | > 30 µM (inactive) | > 30 µM (inactive) | > 30 µM (inactive) | > 30 µM (inactive) | > 30 µM (inactive) | > 30 µM (inactive) | > 30 µM (inactive) |  | > 30 µM (inactive) | > 30 µM (inactive) | 
C[C@@]1(C(=O)Nc2ccc(F)nc2)CCCN1c1nc(Nc2cc(C3CC3)n[nH]2)c2cccn2n1 [BMS-754807] |  |  |  |  |  |  |  | > 30 µM (inactive) |  | > 30 µM (inactive) |  | 
c1cc(OCCN2CCCCC2)cc(-c2n[nH]c3ccc(-c4nc[nH]n4)cc23)c1 [CC-401] | > 30 µM (inactive) | > 30 µM (inactive) | > 30 µM (inactive) | > 30 µM (inactive) | > 30 µM (inactive) | > 30 µM (inactive) | > 30 µM (inactive) |  | > 30 µM (inactive) | > 30 µM (inactive) |  | 
